# From patent US11672817B2, “Maltosyl-Isomaltooligosaccharides” (ISOThrive Inc., priority 2016, dated 2023)
# No end group written: not given here.
# Key:
# [1] = tested on: Weissella viridescens NRRL B-1951; experiment: W. viridescens culture absorbance (growth) with nisin; type: cell-based; set-up: key to Corrected ABS 610rs: A600 minus background absorbance taken just after inoculation; details: for 91516 ABS 610f: final absorbance, uncorrected
# Experimental: Purified nisin A and Z are commercially available and were acquired from Handary S. A. (Brussels Belgium). Certificates of analysis for each lot indicated purities of 95.2 and 99.6% for nisin A and Z, respectively.
# 100 g De-Man, Rogosa and Sharpe (MRS) media was prepared in a 500 mL Erlenmeyer to contain 5.5% solids in deionized water (18.2 MS2, Hydro Service and Supplies, Gaithersburg, Md.). The media was autoclaved (121° C. 15 min), cooled, and inoculated with 1 mL (0.5 mL culture+0.5 mL glycerol, 40%; frozen at −78° C.) of Weissella viridescens NRRL B-1951 (test strain). The culture was incubated at 31° C. overnight (15 Hr).
# The next day, stock solutions of either nisin A or Z were prepared in deionized water to contain 31.3 and 33.7 μg/g of each peptide.
# (§1) 100 g MRS media was prepared to contain 5.5% solids. Two sets (one set each for nisin A and nisin Z) of eight Hach-type tubes (Kimble Chase 45066-16100) were prepared. Within each set, in order was added 5.00, 4.95, 4.90, 4.75, 4.50, 4.00, 3.50 and 3.00 g MRS media. The tubes were sealed and autoclaved.
# (§2) To each tube was added, of the appropriate nisin stock, 0.00, 0.05, 0.10, 0.25, 0.50, 1.00, 1.50, and 2.00 g. Each tube was inoculated with 0.25 g of late-log W. viridescens NRRL B-1951 culture. The tubes were sealed and the absorbance at 600 nm was quickly measured (Hach DR900). The tubes were segregated by set and incubated at 31° C. overnight (15 Hr).
# Each tube was thoroughly mixed to suspend settled cells and the absorbance was measured again at 600 nm. The final absorbance values for each sample were corrected for their respective background (taken just after inoculation, scattered light from added cells). The corrected absorption values were a measure of W. viridescens growth. The corrected values were plotted against nisin concentration and minimum inhibiting concentration approximated via regression.
# [2] = tested on: Weissella viridescens NRRL B-1951; experiment: HPLC of culture supernatants: consumption of glucose and production of organic acids with nisin; type: cell-based; details: for acetic acid in the fermentation media: MRS media originally contained 7% acetate
# Experimental: as §1, §2
# Each tube was sampled (1.5 mL conical polypropylene centrifuge tubes) and centrifuged at 10 kRPM for 10 minutes to remove and suspended cells. The resulting supernatants were filtered (0.2 μm nylon), diluted to 0.5% solids, and analyzed by high pressure liquid chromatography (HPLC, Agilent 1100, refractive index detector and BioRad Ainex HPX-87H column) for consumption of glucose and production of organic acids. The following table illustrates the concentration of sugars such as glucose and production of organic acids during the incubation.
# Note that the MRS media originally contained 7% acetate; therefore 7% should be subtracted from the values for acetate in the above table to ascertain the amount of acetate generated during the assay.
substance,measurement,setting,value
"nisin A (ITSISLCTPGCKTGALMGCNMKTATCHCSIHVSK; not fully specified (residues 2, 5, 33, bridges); also: lantibiotic (thioether rings, dehydrated residues not placed); UniProt P13068 24-57, looked up) [Purified nisin A, commercially available, acquired from Handary S. A; purity 95.2%; bacteriocin peptide]",inhibition of bacterial growth,[1],can effectively inhibit
same,91516 ABS 610f,[1]; nisin A 0.33 μg/g (tube A2),1.568
same,91516 ABS 610f,[1]; nisin A 0.68 μg/g (tube A3),1.531
same,91516 ABS 610f,[1]; nisin A 1.38 μg/g (tube A4),1.334
same,91516 ABS 610f,[1]; nisin A 3.08 μg/g (tube A5),0.911
same,91516 ABS 610f,[1]; nisin A 5.97 μg/g (tube A6),0.536
same,91516 ABS 610f,[1]; nisin A 8.86 μg/g (tube A7),0.403
same,91516 ABS 610f,[1]; nisin A 11.87 μg/g (tube A8),0.361
same,Corrected ABS 610rs,[1]; nisin A 0.33 μg/g (tube A2),1.106
same,Corrected ABS 610rs,[1]; nisin A 0.68 μg/g (tube A3),1.063
same,Corrected ABS 610rs,[1]; nisin A 1.38 μg/g (tube A4),0.868
same,Corrected ABS 610rs,[1]; nisin A 3.08 μg/g (tube A5),0.473
same,Corrected ABS 610rs,[1]; nisin A 5.97 μg/g (tube A6),0.116
same,Corrected ABS 610rs,[1]; nisin A 8.86 μg/g (tube A7),0.001
same,Corrected ABS 610rs,[1]; nisin A 11.87 μg/g (tube A8),0.001
same,Maltotriose in the fermentation media,[2]; nisin A 0.33 μg/g (tube A2),0.312 %/brix
same,ethanol in the fermentation media,[2]; nisin A 0.33 μg/g (tube A2),0.068 %/brix
same,formic acid in the fermentation media,[2]; nisin A 0.33 μg/g (tube A2),0.263 %/brix
same,fructose in the fermentation media,[2]; nisin A 0.33 μg/g (tube A2),0.000 %/brix
same,glucose in the fermentation media,[2]; nisin A 0.33 μg/g (tube A2),23.122 %/brix
same,glycerol in the fermentation media,[2]; nisin A 0.33 μg/g (tube A2),0.292 %/brix
same,lactic acid in the fermentation media,[2]; nisin A 0.33 μg/g (tube A2),6.884 %/brix
same,maltose in the fermentation media,[2]; nisin A 0.33 μg/g (tube A2),0.581 %/brix
same,acetic acid in the fermentation media,[2]; nisin A 0.33 μg/g (tube A2),7.967 %/brix
same,Maltotriose in the fermentation media,[2]; nisin A 1.38 μg/g (tube A4),0.298 %/brix
same,ethanol in the fermentation media,[2]; nisin A 1.38 μg/g (tube A4),0.062 %/brix
same,formic acid in the fermentation media,[2]; nisin A 1.38 μg/g (tube A4),0.282 %/brix
same,fructose in the fermentation media,[2]; nisin A 1.38 μg/g (tube A4),0.000 %/brix
same,glucose in the fermentation media,[2]; nisin A 1.38 μg/g (tube A4),24.138 %/brix
same,glycerol in the fermentation media,[2]; nisin A 1.38 μg/g (tube A4),0.319 %/brix
same,lactic acid in the fermentation media,[2]; nisin A 1.38 μg/g (tube A4),5.496 %/brix
same,maltose in the fermentation media,[2]; nisin A 1.38 μg/g (tube A4),0.815 %/brix
same,acetic acid in the fermentation media,[2]; nisin A 1.38 μg/g (tube A4),8.219 %/brix
same,Maltotriose in the fermentation media,[2]; nisin A 3.08 μg/g (tube A5),0.276 %/brix
same,ethanol in the fermentation media,[2]; nisin A 3.08 μg/g (tube A5),0.094 %/brix
same,formic acid in the fermentation media,[2]; nisin A 3.08 μg/g (tube A5),0.407 %/brix
same,fructose in the fermentation media,[2]; nisin A 3.08 μg/g (tube A5),0.000 %/brix
same,glucose in the fermentation media,[2]; nisin A 3.08 μg/g (tube A5),24.698 %/brix
same,glycerol in the fermentation media,[2]; nisin A 3.08 μg/g (tube A5),0.350 %/brix
same,lactic acid in the fermentation media,[2]; nisin A 3.08 μg/g (tube A5),4.672 %/brix
same,maltose in the fermentation media,[2]; nisin A 3.08 μg/g (tube A5),0.598 %/brix
same,acetic acid in the fermentation media,[2]; nisin A 3.08 μg/g (tube A5),8.296 %/brix
same,Maltotriose in the fermentation media,[2]; nisin A 5.97 μg/g (tube A6),0.288 %/brix
same,ethanol in the fermentation media,[2]; nisin A 5.97 μg/g (tube A6),0.057 %/brix
same,formic acid in the fermentation media,[2]; nisin A 5.97 μg/g (tube A6),0.280 %/brix
same,fructose in the fermentation media,[2]; nisin A 5.97 μg/g (tube A6),0.000 %/brix
same,glucose in the fermentation media,[2]; nisin A 5.97 μg/g (tube A6),25.304 %/brix
same,glycerol in the fermentation media,[2]; nisin A 5.97 μg/g (tube A6),0.328 %/brix
same,lactic acid in the fermentation media,[2]; nisin A 5.97 μg/g (tube A6),2.707 %/brix
same,maltose in the fermentation media,[2]; nisin A 5.97 μg/g (tube A6),0.941 %/brix
same,acetic acid in the fermentation media,[2]; nisin A 5.97 μg/g (tube A6),8.143 %/brix
same,Maltotriose in the fermentation media,[2]; nisin A 8.86 μg/g (tube A7),0.419 %/brix
same,ethanol in the fermentation media,[2]; nisin A 8.86 μg/g (tube A7),0.055 %/brix
same,formic acid in the fermentation media,[2]; nisin A 8.86 μg/g (tube A7),0.234 %/brix
same,fructose in the fermentation media,[2]; nisin A 8.86 μg/g (tube A7),0.000 %/brix
same,glucose in the fermentation media,[2]; nisin A 8.86 μg/g (tube A7),25.444 %/brix
same,glycerol in the fermentation media,[2]; nisin A 8.86 μg/g (tube A7),0.299 %/brix
same,lactic acid in the fermentation media,[2]; nisin A 8.86 μg/g (tube A7),1.521 %/brix
same,maltose in the fermentation media,[2]; nisin A 8.86 μg/g (tube A7),0.775 %/brix
same,acetic acid in the fermentation media,[2]; nisin A 8.86 μg/g (tube A7),7.899 %/brix
same,Maltotriose in the fermentation media,[2]; nisin A 11.87 μg/g (tube A8),0.305 %/brix
same,ethanol in the fermentation media,[2]; nisin A 11.87 μg/g (tube A8),0.071 %/brix
same,formic acid in the fermentation media,[2]; nisin A 11.87 μg/g (tube A8),0.233 %/brix
same,fructose in the fermentation media,[2]; nisin A 11.87 μg/g (tube A8),0.000 %/brix
same,glucose in the fermentation media,[2]; nisin A 11.87 μg/g (tube A8),25.537 %/brix
same,glycerol in the fermentation media,[2]; nisin A 11.87 μg/g (tube A8),0.301 %/brix
same,lactic acid in the fermentation media,[2]; nisin A 11.87 μg/g (tube A8),1.579 %/brix
same,maltose in the fermentation media,[2]; nisin A 11.87 μg/g (tube A8),0.739 %/brix
same,acetic acid in the fermentation media,[2]; nisin A 11.87 μg/g (tube A8),8.091 %/brix
